Data published in patent US7317115B2, “Mandelates salts of substituted tetracyclic tetrahydrofuran derivatives” (Janssen Pharmaceutica, N.V., priority 2001, dated 2008).
Entries after “also recorded” stand apart in the source; their conditions may differ.

Legend:
Format in all cases: physicochemical
[1] = Chemical stability (HPLC and visual inspection after storage); settings: for HPLC Sum of impurities: in % (unit assumed); for chemical stability: storage 2, 4 and 8 weeks under different conditions
Method: In the chemical stability test program the salts are stored for periods of 2, 4 and 8 weeks under different conditions. These conditions are 40° C./75% RH, 50° C., daylight, RT/5% RH, RT/75% RH, 25° C./60% RH and artificial light. The mandelate salt and the ditoluoyltartrate salt are also stored 8 hours in 0.3 da ICH light. The compounds are analyzed after storage by HPLC and by visual inspection.

[2] = Adsorption and desorption of water; settings: 25° C., different relative humidity
Method: The adsorption and desorption of water at 25° C. at different conditions of relative humidity is investigated on an amount of ±10 mg of each salt. The weight change as a function of relative humidity is registered.

[3] = Crystallographic stability (TGA, DSC, IR after storage); settings: for crystallographic stability: storage two weeks under different relative humidities; for IR: key: ~Ref: identical with reference
Method: The stability of the crystal structure of the salt is studied after storage of the compounds for a period of two weeks at room temperature (RT) under either 5%, 75% and 25° C./60% relative humidity (RH). The samples are analyzed with thermogravimetry (TGA), differential scanning calorimetry (DSC) and infrared spectroscopy (IR).

[4] = 0.3 da ICH light (2 weeks column; text: 8 hours)
[5] = listed as (+)ditoluoyltartrate salt

B-(2α,3aα,12bβ)-11-fluoro-3,3a,8,12b-tetrahydro-N-methyl-2H-dibenzo-[3,4:6,7]cyclohepta[1,2-b]furan-2 methanamine [Tartrate]
Appearance ([1]; 25° C./60% RH, 4 weeks): white
HPLC Sum of impurities ([1]; 25° C./60% RH, 4 weeks): 0.75
Appearance ([1]; 25° C./60% RH, 8 weeks): white
HPLC Sum of impurities ([1]; 25° C./60% RH, 8 weeks): 0.77
Appearance ([1]; 40° C./75% RH, 2 weeks): white
HPLC Sum of impurities ([1]; 40° C./75% RH, 2 weeks): 0.72
Appearance ([1]; 40° C./75% RH, 4 weeks): white
HPLC Sum of impurities ([1]; 40° C./75% RH, 4 weeks): 0.83
Appearance ([1]; 40° C./75% RH, 8 weeks): almost white
HPLC Sum of impurities ([1]; 40° C./75% RH, 8 weeks): 0.93
Appearance ([1]; 50° C., 2 weeks): white
HPLC Sum of impurities ([1]; 50° C., 2 weeks): 0.72
Appearance ([1]; 50° C., 4 weeks): white
HPLC Sum of impurities ([1]; 50° C., 4 weeks): 0.77
Appearance ([1]; 50° C., 8 weeks): almost white
HPLC Sum of impurities ([1]; 50° C., 8 weeks): 0.79
Appearance ([1]; Artificial light (2 weeks)): white
HPLC Sum of impurities ([1]; Artificial light (2 weeks)): 0.79
Appearance ([1]; Daylight, 2 weeks): white
HPLC Sum of impurities ([1]; Daylight, 2 weeks): 0.75
Appearance ([1]; Daylight, 4 weeks): almost
HPLC Sum of impurities ([1]; Daylight, 4 weeks): 0.85
Appearance ([1]; Daylight, 8 weeks): slightly
HPLC Sum of impurities ([1]; Daylight, 8 weeks): 0.91
Appearance ([1]; RT/75% RH, 4 weeks): white
HPLC Sum of impurities ([1]; RT/75% RH, 4 weeks): 0.72
Appearance ([1]; RT/75% RH, 8 weeks): white
HPLC Sum of impurities ([1]; RT/75% RH, 8 weeks): 0.80
Appearance ([1]; RT/<5% RH, 4 weeks): white
HPLC Sum of impurities ([1]; RT/<5% RH, 4 weeks): 0.73
Appearance ([1]; RT/<5% RH, 8 weeks): white
HPLC Sum of impurities ([1]; RT/<5% RH, 8 weeks): 0.75
Appearance ([1]; Reference (2 weeks)): white
HPLC Sum of impurities ([1]; Reference (2 weeks)): 0.72
chemical stability ([1]; listed as tartrate salt): showed a sensitivity towards 40° C./70% RH and light; also recorded: shows sensitivity towards higher humidities and light
water adsorption/desorption behaviour (weight change as a function of relative humidity) ([2]; listed as tartrate salt): less stable but the weight change as a function of the relative humidity is very small; also recorded: good adsorption desorption profile
Appearance ([3]; 0 days): white
DSC Max ([3]; 0 days): 158.8 °C
DSC ΔH ([3]; 0 days): 85.9 J/g
TGA <100° C. ([3]; 0 days): 0%
crystallographic stability ([3]; listed as tartrate salt): crystallographic stable; also recorded: crystallographically stable
Appearance ([3]; two weeks, RT/56% RH): white
DSC Max ([3]; two weeks, RT/56% RH): 159.0 °C
DSC ΔH ([3]; two weeks, RT/56% RH): 86.2 J/g
IR ([3]; two weeks, RT/56% RH): ~Ref
TGA <100° C. ([3]; two weeks, RT/56% RH): 0.1%
Appearance ([3]; two weeks, RT/75% RH): white
DSC Max ([3]; two weeks, RT/75% RH): 159.0 °C
DSC ΔH ([3]; two weeks, RT/75% RH): 85.5 J/g
TGA <100° C. ([3]; two weeks, RT/75% RH): 0%
Appearance ([3]; two weeks, RT/<5% RH): white
DSC Max ([3]; two weeks, RT/<5% RH): 160.3 °C
DSC ΔH ([3]; two weeks, RT/<5% RH): 86.4 J/g
TGA <100° C. ([3]; two weeks, RT/<5% RH): 0%

B-(2α,3aα,12bβ)-11-fluoro-3,3a,8,12b-tetrahydro-N-methyl-2H-dibenzo-[3,4:6,7]cyclohepta[1,2-b]furan-2 methanamine [(+)ditoluoyltartrate]
Appearance [1, 4]: white
HPLC Sum of impurities [1, 4]: 1.41
Appearance ([1]; 40° C./75% RH, 2 weeks): white
HPLC Sum of impurities ([1]; 40° C./75% RH, 2 weeks): 0.98
Appearance ([1]; 40° C./75% RH, 4 weeks): white
HPLC Sum of impurities ([1]; 40° C./75% RH, 4 weeks): 1.00
Appearance ([1]; 40° C./75% RH, 8 weeks): white
HPLC Sum of impurities ([1]; 40° C./75% RH, 8 weeks): 1.09
Appearance ([1]; 50° C., 2 weeks): white
HPLC Sum of impurities ([1]; 50° C., 2 weeks): 1.06
Appearance ([1]; 50° C., 4 weeks): white
HPLC Sum of impurities ([1]; 50° C., 4 weeks): 1.22
Appearance ([1]; 50° C., 8 weeks): white
HPLC Sum of impurities ([1]; 50° C., 8 weeks): 1.25
Appearance ([1]; Artificial light (2 weeks)): white
HPLC Sum of impurities ([1]; Artificial light (2 weeks)): 1.57
Appearance ([1]; Daylight, 2 weeks): white
HPLC Sum of impurities ([1]; Daylight, 2 weeks): 1.26
Appearance ([1]; Daylight, 4 weeks): white
HPLC Sum of impurities ([1]; Daylight, 4 weeks): 1.65
Appearance ([1]; Daylight, 8 weeks): white-yellow
HPLC Sum of impurities ([1]; Daylight, 8 weeks): 1.74
Appearance ([1]; Reference (2 weeks)): white
HPLC Sum of impurities ([1]; Reference (2 weeks)): 1.01
chemical stability [1, 5]: shows a sensitivity towards temperature and light
water adsorption/desorption behaviour (weight change as a function of relative humidity) [2, 5]: less stable but the weight change as a function of the relative humidity is very small; also recorded: good adsorption desorption profile
Appearance ([3]; 0 days): white
DSC Max ([3]; 0 days): 173.7 °C
DSC ΔH ([3]; 0 days): 71.9 J/g
TGA <100° C. ([3]; 0 days): 0.2%
crystallographic stability [3, 5]: crystallographic stable; also recorded: crystallographically stable
Appearance ([3]; two weeks, 25° C./60% RH): white
DSC Max ([3]; two weeks, 25° C./60% RH): 177.6 °C
DSC ΔH ([3]; two weeks, 25° C./60% RH): 74.7 J/g
IR ([3]; two weeks, 25° C./60% RH): ~Ref
TGA <100° C. ([3]; two weeks, 25° C./60% RH): 0.1%
Appearance ([3]; two weeks, RT/75% RH): white
DSC Max ([3]; two weeks, RT/75% RH): 178.6 °C
DSC ΔH ([3]; two weeks, RT/75% RH): 70.8 J/g
IR ([3]; two weeks, RT/75% RH): ~Ref
TGA <100° C. ([3]; two weeks, RT/75% RH): 0.2%
Appearance ([3]; two weeks, RT/<5% RH): white
DSC Max ([3]; two weeks, RT/<5% RH): 175.6 °C
DSC ΔH ([3]; two weeks, RT/<5% RH): 78.7 J/g
IR ([3]; two weeks, RT/<5% RH): ~Ref
TGA <100° C. ([3]; two weeks, RT/<5% RH): 0.3%
